Test results: US9249147B2, “Tyrosine kinase inhibitors” (CHEMBRIDGE CORPORATION, priority 2008, dated 2016)
Values after ≈ are worked out from the molar mass of the structure shown. “Also recorded” adds a separate entry of the source. Structures can show the parent of a compound that is named as a salt. Where two headings read alike, the source gives them in different places.

What was measured:
[1] = system: A549 cells; experiment: Prolonged inflammation (PMA induced MMP-1 or IL-8) in A549 cells; assay type: cell-based; settings: FIG. 17
Excerpt: Panel 3: All the above were done on the transcriptional level (i.e., MMP-1, IL-8, etc. expressions). For IL-8, this was verified on the translational (i.e., protein expression) level as well.

[2] = system: MMP-1 in A549 cells; experiment: Combination of Trk inhibitor and glucocorticoid on MMP-1 expression in A549 cells; assay type: cell-based; settings: sub-optimal concentrations
[3] = system: MMP-1 in A549 cells; experiment: PMA induced MMP-1 production in A549 cells; assay type: cell-based; settings: one hour treatment
[4] = system: IL-8 in A549 cells; experiment: PMA-induced IL-8 levels in A549 cells, with or without RU-486; assay type: cell-based; settings: 4 hr treatments
[5] = system: PC-12 cells; experiment: PC-12 cell cytotoxicity; assay type: cell-based; settings: FIG. 13
[6] = system: FKBP51 (GR pathway); experiment: GR specific anti-inflammatory marker FKBP51 in A549 cells; assay type: cell-based
[7] = system: PC12 cells; experiment: NGF-stimulated neurite outgrowth in PC12 cells; assay type: cell-based; settings: 100 nM compound, NGF 100 ng/ml, 6 days
Protocol: In chronic pain states, neurons form outgrowths which sensitize them to pain. NGF-induced neurite outgrowth was used as an assay for TrkA-dependent chronic/neuropathic pain activity.
Methods: PC12 cells were grown in 2% FBS and treated with or without NGF (100 ng/ml) 30 min before adding of vehicle or TRKA compounds for 6 days, changing media on day 3. On day 6 cells were fixed and stained for SRB before photographed for neurite outgrowth.

[8] = system: A549 cells; experiment: TNFα-induced acute inflammation in A549 cells; assay type: cell-based; settings: 100 nM Dex or 1 μM compound (VI)
[9] = system: ALCL cell lines; experiment: Proliferation of NPM-ALK-dependent ALCL / ALK+ T-cell lymphoma cell lines; assay type: cell-based; settings: FIGS. 5, 6
Excerpt: (§1) Cell proliferation inhibition assays were run for compound (II) with the five target NPM-ALK-dependent ALCL cell lines (Karpas 299, SuDHL-1, JB6, SupM2, UConn) and 12 unrelated cell lines (HEK293, CHO-K1, MCF7, HepG2, H292, H520, H1581, H596, H522, CHA-GO-K1, UMC-11, SK-MES1). […] The pronounced target cell-killing effect is also observed (molecular mechanisms to be determined).

[10] = Aqueous Solubility (PBS, pH 7.4); assay type: physicochemical; settings: pH 7.4, 2.0E−04 M; for solubility: pH 7.4, PBS
[11] = Partition Coefficient (Log D, n-octanol/PBS, pH 7.4); assay type: physicochemical; settings: 1.0E−04 M, read-out: Partition Coefficient Log D, Weighed Average of Three Replicates
[12] = Caco-2, pH 6.5
[13] = Caco-2 (TC7) A-B Permeability test (pH 6.5/7.4); settings: A-B Permeability (TC7, pH 6.5/7.4), test concentration 1.0E−05 M
[14] = system: SUDHL-1; experiment: Cellular IC50, SUDHL-1; assay type: cell-based; settings: Homo sapiens, SU-DHL-1; Table 3A
Excerpt: as §1

[15] = molecular target: T1, IRK (Homo sapiens, UniProt P06213); experiment: IRK (insulin receptor kinase) assay; assay type: biochemical; settings: Table 3A; read-out: Cell Free IC50 IRK
T1 construct: 6×His- or GST-tagged kinase domain fragments of the corresponding RTKs expressed in baculovirus system; host or cells: baculovirus system
T1 sequence (P06213 1023-1298 limits assumed): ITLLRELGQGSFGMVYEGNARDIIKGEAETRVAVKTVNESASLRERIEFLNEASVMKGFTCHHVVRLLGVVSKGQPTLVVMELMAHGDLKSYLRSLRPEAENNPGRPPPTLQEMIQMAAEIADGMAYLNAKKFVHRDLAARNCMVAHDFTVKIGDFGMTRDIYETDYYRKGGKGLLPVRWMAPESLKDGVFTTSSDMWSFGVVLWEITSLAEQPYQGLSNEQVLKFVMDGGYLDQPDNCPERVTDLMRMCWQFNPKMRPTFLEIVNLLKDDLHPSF
In short: (§2)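 The AlphaScreen PT66 format of the NPM-ALK assay was applied with minor modifications to commercial recombinant His/GST-tagged kinase domains. Compound (0.078125–40 μM) was incubated 30 min at RT with 10 μM ATP and biotinylated poly-GT in Tris pH 7.5/MgCl2/MnCl2/DTT buffer, then beads 60 min. Read at 520–680 nm; IC50 and Ki derived.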

[16] = Liver microsome stability, Human LM-P1 / HLM; assay type: in vitro ADME; settings: Table 3A, human liver microsomes; read-out: CL HLM
Excerpt: Metabolic stability of compound (II) (labeled as CRL241 below) in vitro has been tested in a standard in vitro microsomal stability assay in human microsomes (Cerep Study 13170).

[17] = system: Karpas299; experiment: Cell proliferation inhibition, ALCL line Karpas299; assay type: cell-based; settings: Homo sapiens, KARPAS-299; Table 3A; read-out: Cellular IC50 K-299
Excerpt: The IL-3-dependent lymphoid cell line BaF3 or BaF3 rendered IL-3-independent by engineered expression of NPM-ALK were used in parallel to test each candidate inhibitor. Control wells contained DMSO solvent without test compound. Specific inhibition of ALK signaling is indicated in the assay by impairment of NPM-ALK-expressing BaF3 cell growth without alterations in the growth of parental BaF3. This colorimetric assay of cell proliferation and viability is based upon reduction of the yellow monotetrazolium salt XTT to a water-soluble orange formazan dye, a reaction catalyzed by mitochondrial dehydrogenases in living cells only (Cell Proliferation Kit II, Cat. #1 465 015, Roche Biochemicals). In addition to testing compounds for their ability to impair the growth of BaF3 cells engineered to express NPM-ALK, the NPM-ALK-positive human lymphoma cell line Karpas-299 (Deutsche Sammlung von Mikroorganismen and Zellkulturen GmbH (DSMZ) no. ACC 31), the human BCR-ABL-positive chronic myeloid leukemia cell line K562 (American Type Culture Collection (ATCC) no. CCL-243), and the human T-cell leukemia line Jurkat (DSMZ no. ACC 282) were tested in these assays.
Each compound stock in 100% DMSO was first diluted using 8% DMSO/culture medium to produce a working stock of 250 μM compound. This working stock was then used to perform serial 1:1 dilutions (i.e., 125 μM, 62.5 μM, 31.25 μM, 15.625 μM, 7.8125 μM, and 3.90625 μM) using DMSO-free culture medium. Twenty (20) μL of each of these dilutions was then added to the cells (2×10^4 cells in 80 μL culture medium per 96-well) to obtain the final test compound concentrations (i.e., 25 μM, 12.5 μM, 6.25 μM, 3.125 μM, 1.5625 μM, and 0.78125 μM).
as §1

[18] = molecular target: TRKA (Homo sapiens, UniProt P04629); experiment: TRKA kinase assay; assay type: biochemical; design: 6×His- or GST-tagged kinase domain fragments of the corresponding RTKs expressed in baculovirus system; host or cells: baculovirus system; settings: Table 3A; read-out: Cell Free IC50 TRKA
Sequence of TRKA (P04629 510-781 limits assumed): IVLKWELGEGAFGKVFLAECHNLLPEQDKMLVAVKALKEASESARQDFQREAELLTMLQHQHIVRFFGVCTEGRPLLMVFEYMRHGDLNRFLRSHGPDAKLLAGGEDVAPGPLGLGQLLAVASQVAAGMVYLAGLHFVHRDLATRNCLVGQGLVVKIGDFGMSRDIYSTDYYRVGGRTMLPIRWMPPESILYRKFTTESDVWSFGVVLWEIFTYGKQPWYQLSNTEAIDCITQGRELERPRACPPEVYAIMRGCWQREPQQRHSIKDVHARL

[19] = system: U937; experiment: Cellular IC50, U937; assay type: cell-based; settings: Homo sapiens, U-937; Table 3A
[20] = Liver microsome stability, Mouse LM-P1 / MLM; assay type: in vitro ADME; settings: Table 3A, mouse liver microsomes; read-out: CL MLM
[21] = molecular target: T2, IGF1R (Homo sapiens, UniProt P08069); experiment: IGF1R kinase assay; assay type: biochemical; settings: Table 3A; read-out: Cell Free IC50 IGF1R
T2 construct: 6×His- or GST-tagged kinase domain fragments of the corresponding RTKs expressed in baculovirus system; host or cells: baculovirus system
T2 sequence (P08069 999-1274 limits assumed): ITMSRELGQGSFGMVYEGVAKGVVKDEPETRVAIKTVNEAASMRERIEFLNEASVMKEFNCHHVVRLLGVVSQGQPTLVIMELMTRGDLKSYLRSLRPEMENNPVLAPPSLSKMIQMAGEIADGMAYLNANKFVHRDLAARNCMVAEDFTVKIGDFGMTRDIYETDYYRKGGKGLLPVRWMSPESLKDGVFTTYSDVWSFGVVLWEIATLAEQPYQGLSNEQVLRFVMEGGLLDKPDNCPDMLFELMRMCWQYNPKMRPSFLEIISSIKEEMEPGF
In short: as §2

[22] = molecular target: RET (Homo sapiens, UniProt P07949); experiment: RET cell free kinase assay (Table 3A); assay type: biochemical
Sequence of RET (P07949 29-1114): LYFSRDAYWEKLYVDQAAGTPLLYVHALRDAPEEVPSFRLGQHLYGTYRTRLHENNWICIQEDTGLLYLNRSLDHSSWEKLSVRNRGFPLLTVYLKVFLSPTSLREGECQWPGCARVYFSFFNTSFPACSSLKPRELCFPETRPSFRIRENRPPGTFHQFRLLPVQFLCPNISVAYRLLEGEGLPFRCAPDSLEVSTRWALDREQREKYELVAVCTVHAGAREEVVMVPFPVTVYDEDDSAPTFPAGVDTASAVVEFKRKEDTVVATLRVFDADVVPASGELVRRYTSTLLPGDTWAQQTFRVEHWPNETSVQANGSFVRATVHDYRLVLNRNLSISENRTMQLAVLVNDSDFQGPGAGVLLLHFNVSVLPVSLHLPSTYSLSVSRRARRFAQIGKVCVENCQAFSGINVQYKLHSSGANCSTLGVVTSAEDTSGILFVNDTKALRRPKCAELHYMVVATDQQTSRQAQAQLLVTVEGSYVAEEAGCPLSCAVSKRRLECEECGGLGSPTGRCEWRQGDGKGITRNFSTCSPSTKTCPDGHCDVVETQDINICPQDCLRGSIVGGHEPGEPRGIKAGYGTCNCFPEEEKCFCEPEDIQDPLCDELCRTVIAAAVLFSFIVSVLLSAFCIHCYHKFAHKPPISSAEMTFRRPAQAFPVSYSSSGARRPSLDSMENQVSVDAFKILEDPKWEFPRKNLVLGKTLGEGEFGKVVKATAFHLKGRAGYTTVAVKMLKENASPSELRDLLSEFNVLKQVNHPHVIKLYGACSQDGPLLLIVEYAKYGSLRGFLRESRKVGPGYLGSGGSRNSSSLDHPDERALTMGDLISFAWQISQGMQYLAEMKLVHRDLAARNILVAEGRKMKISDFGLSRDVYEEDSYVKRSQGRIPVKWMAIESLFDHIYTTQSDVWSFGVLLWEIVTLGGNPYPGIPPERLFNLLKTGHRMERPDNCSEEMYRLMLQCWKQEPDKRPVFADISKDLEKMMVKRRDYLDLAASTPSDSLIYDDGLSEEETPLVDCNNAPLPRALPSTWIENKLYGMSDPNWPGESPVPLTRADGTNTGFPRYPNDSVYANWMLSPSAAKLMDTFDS

[23] = Tables 9C, 9D, read-out: Solubility Mean
[24] = individual data, read-out: Solubility 1st/2nd

SMILES: COC(=O)[C@@]1(O)C[C@H]2O[C@]1(C)n1c3ccccc3c3c4c(c5c6ccccc6n2c5c31)C(=O)NC4 [K252a, reference compound]
- Anti-inflammatory effect on prolonged inflammation (PMA induced MMP-1 or IL-8) [1]: demonstrated anti-inflammatory activity which was not reversible by GR antagonist

SMILES: C[C@@H](Cc1cc(F)cc(F)c1F)Nc1cc[nH]c(=O)c1-c1nc2cc3c(cc2[nH]1)CN(CCN(C)C)C3=O [compound (VI)]
- Effect of combination with Dex on PMA-induced inflammation (MMP-1 expression) [2]: additive anti-inflammatory effects
- Concentration required for complete inhibition of PMA induced MMP-1 production [3]: ~1 µM
- Effect of GR antagonist RU-486 on inhibition of PMA-induced IL-8 levels [4]: not affected or possibly were more potent
- PC-12 cell cytotoxicity [5]: lack of PC-12 cell cytotoxicity
- Activation of GR pathway (FKBP51 marker) [6]: did not active the GR pathway
- Anti-inflammatory effect on prolonged inflammation (PMA induced MMP-1 or IL-8) [1]: anti-inflammatory activity was observed; also recorded: demonstrated anti-inflammatory activity which was not reversible by GR antagonist
- NGF-stimulated neurite outgrowth [7]: inhibited the neurite outgrowth
- TNFα-induced acute inflammation [8]: partially reversible

SMILES: C[C@@H](Cc1cccs1)Nc1cc[nH]c(=O)c1-c1nc2cc3c(cc2[nH]1)C(=O)N(CCCN1CCCC1)C3 [compound (V)]
- Inhibition of ALCL / ALK+ T-cell lymphoma cell line proliferation [9]: potent and highly selective inhibitor of ALCL cell lines

SMILES: C[C@@H](Cc1c(F)c(F)cc(F)c1F)Nc1cc[nH]c(=O)c1-c1nc2cc3c(cc2[nH]1)CN(CCN1CCCC1)C3=O [compound (III)]
- Concentration required for complete inhibition of PMA induced MMP-1 production [3]: ~1 µM
- Effect of GR antagonist RU-486 on inhibition of PMA-induced IL-8 levels [4]: not affected or possibly were more potent
- PC-12 cell cytotoxicity [5]: lack of PC-12 cell cytotoxicity
- Activation of GR pathway (FKBP51 marker) [6]: did not active the GR pathway
- NGF-stimulated neurite outgrowth [7]: inhibited the neurite outgrowth

SMILES: C[C@@H]1C[C@H]2[C@@H]3CCC4=CC(=O)C=C[C@]4(C)[C@@]3(F)[C@@H](O)C[C@]2(C)[C@@]1(O)C(=O)CO [dexamethasone, reference compound]
- Inhibition of PMA induced MMP-1 production [3]: potently inhibit PMA induced MMP-1 production in the nM range
- Effect of GR antagonist RU-486 on inhibition of PMA-induced IL-8 levels [4]: reversible by GR antagonist RU-486
- TNFα-induced acute inflammation [8]: partially reversible

SMILES: CO[C@H]1/C=C/O[C@@]2(C)Oc3c(C)c(O)c4c(O)c(c(/C=N/N5CCN(C)CC5)c(O)c4c3C2=O)NC(=O)/C(C)=C\C=C\[C@H](C)[C@H](O)[C@@H](C)[C@@H](O)[C@@H](C)[C@H](OC(C)=O)[C@@H]1C [Rifampicin]
- Solubility 1st/2nd ([10]; individual data): 186.51 μm
- solubility [10, 23]: 184 µM (≈ 151 µg/mL)
- solubility [10, 24]: 181 µM (≈ 149 µg/mL)
- logD [11]: 1.23

SMILES: CC[C@]1(O)C[C@@H]2CN(CCc3c([nH]c4ccccc34)[C@@](C(=O)OC)(c3cc4c(cc3OC)N(C)[C@H]3[C@@](O)(C(=O)OC)[C@H](OC(C)=O)[C@]5(CC)C=CCN6CC[C@]43[C@@H]65)C2)C1 [vinblastin]
- Mean Permeability [12]: 0.0 10^−6 cm/s
- Permeability 1st [12]: 0.82 10^−6 cm/s
- Permeability 2nd [12]: 0.02 10^−6 cm/s
- Present Recovery 1st ([13]; 1st replicate): 73%
- Present Recovery 2nd ([13]; 2nd replicate): 57%
- Mean Recovery ([13]; mean of n = 2): 65%

SMILES: Cc1ccc(F)cc1C[C@H](C)Nc1cc[nH]c(=O)c1-c1nc2cc3c(cc2[nH]1)CN(CCN(C)C)C3=O [drawing 361]
- IC50 [14]: 30 nM
- IC50 [15]: 526 nM
- CLint scaled [16]: < 5.8 mL/min/kg
- IC50 [17]: 155 nM
- IC50 [18]: 3 nM
- IC50 [19]: > 3000 nM
- CLint scaled [20]: 46 mL/min/kg
- IC50 [21]: 455 nM

SMILES: COCCc1ccc(OCC(O)CNC(C)C)cc1 (centres unmarked) [Metoprolol tartrate]
- Solubility 1st/2nd ([10]; individual data): 188.93 μm
- solubility [10, 23]: 190 µM
- solubility [10, 24]: 190 µM
- logD [11]: -0.46

SMILES: C[C@@H](Cc1cc(F)cc(F)c1F)Nc1cc[nH]c(=O)c1-c1nc2cc3c(cc2[nH]1)CN(CCN1CCCC1)C3=O [compound (VII)]
- PC-12 cell cytotoxicity [5]: lack of PC-12 cell cytotoxicity
- NGF-stimulated neurite outgrowth [7]: inhibited the neurite outgrowth

SMILES: C[C@@H](Cc1c(F)c(F)cc(F)c1F)Nc1cc[nH]c(=O)c1-c1nc2cc3c(cc2[nH]1)CN(CCN(C)C)C3=O
- IC50 [14]: 102 nM
- IC50 [22]: 4 nM
- CLint scaled [16]: < 5.8 mL/min/kg
- IC50 [19]: > 3000 nM
- CLint scaled [20]: 82.2 mL/min/kg
